According to patent US7999011B2, “Method for cardioprotection and neuroprotection by intravenous administration of halogenated volatile anesthetics” (Baxter International Inc., priority 2002, dated 2011):

Assay: Warming of emulsion at 37° C. for 2 h before infusion
Assay type: physicochemical
Conditions: syringe and extension tubing
Experimental: The experimental design for the experiments is illustrated in FIG. 1. Rabbits were randomly assigned to one of six experimental groups: a control group (0.9% saline infusion), a vehicle group (drug lipid vehicle), or one of four anesthetic groups (emulsified desflurane, isoflurane, enflurane, or sevoflurane). The vials of anesthetics were stored at 4° C. as prepared in Example 1. After opening, the vial was left in a water bath at 37° C. for 2 h. Anesthetics were directly poured into the syringe without using negative pressure suction.
All anesthetics were used under equivalent experimental conditions, as indicated previously (i.e., warmed for two hours at body temperature before infusion).
Despite efforts to remove the bubbles, it was impossible to eliminate all bubbles, and some were likely infused during the infusion period. Desflurane results should therefore be interpreted with the constraints of this experimental limitation.

FC(F)OC(F)C(F)(F)F (stereo not shown) [DES, desflurane]
behaviour of emulsion on warming to body temperature: bubbles accumulated in the syringe and extension tubing
